Literature values in patent US20070254006A1, “Medical Devices and Coatings with Non-Leaching Antimicrobial Peptides” (Massachusetts Institute of Technology, priority 2006, published 2007).

Legend:
avidin and streptavidin = conditions: interaction with avidin and streptavidin
Staphylococcus aureus = conditions: Dacron graft soaked in peptide solution before implanting in a rat, bacterial challenge

O=C(O)CCCC[C@@H]1SC[C@@H]2NC(=O)N[C@@H]21 [Biotin]
Ka (avidin and streptavidin): 10^15 M^−1

dermaseptin
incidence of device colonization and infection (Staphylococcus aureus): reduces the incidence of device colonization and infection
